Source: patent US12180187B2, “1-phenyl-5-azinylpyrazolyl-3-oxyalkyl acids and their use for controlling unwanted plant growth” (BAYER AKTIENGESELLSCHAFT, priority 2019, dated 2024)

How the values were obtained:
LOLRI [1] = assay: Pre-emergence action against LOLRI, 1280 g/ha; assay type: in vivo, Lolium rigidum; settings: visual scoring after about 3 weeks vs untreated controls, 100% = plants have died, 0% = like control plants
Procedure, shortened: (§1)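 Soil-surface application after sowing, before emergence: WP or EC formulations in water with 0.5% additive, 600 litres per hectare, onto sandy loam pots. Damage rated visually in % relative to untreated plants after roughly 3 weeks in a greenhouse.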

PHBPU = assay: Pre-emergence action at 320 g/ha against PHBPU; assay type: in vivo; settings: visual scoring after about 3 weeks vs untreated controls
Procedure, shortened: (§2)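 Compounds were sprayed onto soil over sown seeds as emulsions or suspensions with 0.5% additive at a water rate of 600 l/ha. After about 3 weeks in the greenhouse, effect was rated visually as percent (100% = died).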

MATIN [2] = assay: Pre-emergence action at 320 g/ha against MATIN; assay type: in vivo, Tripleurospermum inodorum (Matricaria inodora); settings: visual scoring after about 3 weeks vs untreated controls
Procedure, shortened: as §2

SETVI [3] = assay: Pre-emergence action against SETVI, 1280 g/ha; assay type: in vivo, Setaria viridis; settings: visual scoring after about 3 weeks vs untreated controls, 100% = plants have died, 0% = like control plants
Procedure, shortened: as §1

AMARE [4] = assay: Pre-emergence action at 320 g/ha against AMARE; assay type: in vivo, Amaranthus retroflexus; settings: visual scoring after about 3 weeks vs untreated controls
Procedure, shortened: as §2

STEME [5] = assay: Pre-emergence action against STEME, 1280 g/ha; assay type: in vivo, Stellaria media; settings: scored visually after about 3 weeks vs untreated controls (100% = plants have died)
Procedure, shortened: as §1

SETVI [6] = assay: Pre-emergence action at 320 g/ha against SETVI; assay type: in vivo, Setaria viridis; settings: visual scoring after about 3 weeks vs untreated controls
Procedure, shortened: as §2

DIGSA [7] = assay: Pre-emergence action against DIGSA, 1280 g/ha; assay type: in vivo, Digitaria sanguinalis; settings: visual scoring after about 3 weeks vs untreated controls, 100% = plants have died, 0% = like control plants
Procedure, shortened: as §1

AVEFA = assay: Pre-emergence action at 320 g/ha against AVEFA; assay type: in vivo; settings: visual scoring after about 3 weeks vs untreated controls
Procedure, shortened: as §2

ALOMY [8] = assay: Pre-emergence action at 320 g/ha against ALOMY; assay type: in vivo, Alopecurus myosuroides; settings: scored visually after about 3 weeks vs untreated controls (100% = plants have died)
Procedure, shortened: as §2

POAAN [9] = assay: Post-emergence action against POAAN, 1.28 kg/ha; assay type: in vivo, Poa annua; settings: dosage 1280 g/ha, visual rating about 3 weeks after treatment vs untreated controls
Procedure, shortened: (§3)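 Greenhouse pot test, sandy loam; weeds sprayed post-emergence at one-leaf stage (2–3 weeks after sowing) with WP or EC formulation plus 0.5% additive, 600 l/ha water. Visual rating after about 3 weeks versus untreated controls, 100% = plants dead, 0% = like control.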

ECHCG [10] = assay: Post-emergence action against ECHCG, 1.28 kg/ha; assay type: in vivo, Echinochloa crus-galli; settings: dosage 1280 g/ha, visual rating about 3 weeks after treatment vs untreated controls
Procedure, shortened: as §3

MATIN [11] = assay: Pre-emergence action against MATIN, 1280 g/ha; assay type: in vivo, Tripleurospermum inodorum (Matricaria inodora); settings: scored visually after about 3 weeks vs untreated controls (100% = plants have died)
Procedure, shortened: as §1

VERPE [12] = assay: Post-emergence action against VERPE, 1.28 kg/ha; assay type: in vivo, Veronica persica; settings: dosage 1280 g/ha, visual rating about 3 weeks after treatment vs untreated controls (100% = plants died)
Procedure, shortened: as §3

DIGSA [13] = assay: Pre-emergence action at 320 g/ha against DIGSA; assay type: in vivo, Digitaria sanguinalis; settings: visual scoring after about 3 weeks vs untreated controls
Procedure, shortened: as §2

AMARE [14] = assay: Post-emergence action against AMARE, 1.28 kg/ha; assay type: in vivo, Amaranthus retroflexus; settings: dosage 1280 g/ha, visual rating about 3 weeks after treatment vs untreated controls (100% = plants died)
Procedure, shortened: as §3

ABUTH [15] = assay: Post-emergence action against ABUTH, 1.28 kg/ha; assay type: in vivo, Abutilon theophrasti; settings: dosage 1280 g/ha, visual rating about 3 weeks after treatment vs untreated controls (100% = plants died)
Procedure, shortened: as §3

ABUTH [16] = assay: Pre-emergence action at 320 g/ha against ABUTH; assay type: in vivo, Abutilon theophrasti; settings: greenhouse, scored visually after about 3 weeks vs untreated controls, 100% = plants have died, 0% = like control plants
Excerpt: b) Seeds of monocotyledonous and dicotyledonous weed plants and crop plants are placed in plastic or organic planting pots and covered with soil. The compounds of the invention, formulated in the form of wettable powders (WP) or as emulsion concentrates (EC), are then applied onto the surface of the covering soil as aqueous suspension or emulsion with addition of 0.5% additive at a water application rate of 600 l/ha (converted). After the treatment, the pots are placed in a greenhouse and kept under good growth conditions for the trial plants. After about 3 weeks, the effect of the preparations is scored visually in comparison with untreated controls as percentages. For example, 100% activity=the plants have died, 0% activity=like control plants. Tables 13 to 26 below show the effects of selected compounds of the general formula (I) on various harmful plants and at an application rate corresponding to 320 g/ha, which were obtained by the experimental procedure mentioned above.

KCHSC = assay: Pre-emergence action against KCHSC, 1280 g/ha; assay type: in vivo, Bassia scoparia; settings: scored visually after about 3 weeks vs untreated controls (100% = plants have died)
Procedure, shortened: as §1

DIGSA [17] = assay: Post-emergence action against DIGSA, 1.28 kg/ha; assay type: in vivo, Digitaria sanguinalis; settings: dosage 1280 g/ha, visual rating about 3 weeks after treatment vs untreated controls
Procedure, shortened: as §3

MATIN [18] = assay: Post-emergence action against MATIN, 1.28 kg/ha; assay type: in vivo, Tripleurospermum inodorum (Matricaria inodora); settings: dosage 1280 g/ha, visual rating about 3 weeks after treatment vs untreated controls (100% = plants died)
Procedure, shortened: as §3

ABUTH [19] = assay: Pre-emergence action against ABUTH, 1280 g/ha; assay type: in vivo, Abutilon theophrasti; settings: scored visually after about 3 weeks vs untreated controls (100% = plants have died)
Procedure, shortened: as §1

VIOTR = assay: Pre-emergence action at 320 g/ha against VIOTR; assay type: in vivo, Viola tricolor; settings: dosage 320 g/ha
Procedure, shortened: as §2

ECHGC = assay: Pre-emergence action at 320 g/ha against ECHGC; assay type: in vivo, Echinochloa crus-galli; settings: visual scoring after about 3 weeks vs untreated controls
Procedure, shortened: as §2

VERPE [20] = assay: Pre-emergence action at 320 g/ha against VERPE; assay type: in vivo, Veronica persica; settings: visual scoring after about 3 weeks vs untreated controls
Procedure, shortened: as §2

ALOMY [21] = assay: Pre-emergence action against ALOMY, 1280 g/ha; assay type: in vivo, Alopecurus myosuroides; settings: visual scoring after about 3 weeks vs untreated controls, 100% = plants have died, 0% = like control plants
Procedure, shortened: as §1

ALOMY [22] = assay: Post-emergence action against ALOMY, 1.28 kg/ha; assay type: in vivo, Alopecurus myosuroides; settings: dosage 1280 g/ha, visual rating about 3 weeks after treatment vs untreated controls
Procedure, shortened: as §3

LOLRI [23] = assay: Pre-emergence action at 320 g/ha against LOLRI; assay type: in vivo, Lolium rigidum; settings: visual scoring after about 3 weeks vs untreated controls
Procedure, shortened: as §2

SETVI [24] = assay: Post-emergence action against SETVI, 1.28 kg/ha; assay type: in vivo, Setaria viridis; settings: dosage 1280 g/ha, visual rating about 3 weeks after treatment vs untreated controls
Procedure, shortened: as §3

POLCO = assay: Pre-emergence action at 320 g/ha against POLCO; assay type: in vivo, Fallopia convolvulus (Polygonum convolvulus); settings: visual scoring after about 3 weeks vs untreated controls
Procedure, shortened: as §2

STEME [25] = assay: Post-emergence action against STEME, 1.28 kg/ha; assay type: in vivo, Stellaria media; settings: dosage 1280 g/ha, visual rating about 3 weeks after treatment vs untreated controls (100% = plants died)
Procedure, shortened: as §3

LOLRI [26] = assay: Post-emergence action against LOLRI, 1.28 kg/ha; assay type: in vivo, Lolium rigidum; settings: dosage 1280 g/ha, visual rating about 3 weeks after treatment vs untreated controls
Procedure, shortened: as §3

VERPE [27] = assay: Pre-emergence action against VERPE, 1280 g/ha; assay type: in vivo, Veronica persica; settings: scored visually after about 3 weeks vs untreated controls (100% = plants have died)
Procedure, shortened: as §1

AMARE [28] = assay: Pre-emergence action against AMARE, 1280 g/ha; assay type: in vivo, Amaranthus retroflexus; settings: scored visually after about 3 weeks vs untreated controls (100% = plants have died)
Procedure, shortened: as §1

ECHCG [29] = assay: Pre-emergence action against ECHCG, 1280 g/ha; assay type: in vivo, Echinochloa crus-galli; settings: visual scoring after about 3 weeks vs untreated controls, 100% = plants have died, 0% = like control plants
Procedure, shortened: as §1

POAAN [30] = assay: Pre-emergence action against POAAN, 1280 g/ha; assay type: in vivo, Poa annua; settings: visual scoring after about 3 weeks vs untreated controls, 100% = plants have died, 0% = like control plants
Procedure, shortened: as §1

With N#CCCOC(=O)COc1nn(-c2ccccc2F)c(-c2ccc(F)nc2)c1Br [VII-104] the “Pre-emergence action against LOLRI” value (LOLRI [1]) was 100%, the “Pre-emergence action against PHBPU in %” value (PHBPU) was 100% and the “Pre-emergence action against MATIN in %” value (MATIN [2]) was 100%. For the same molecule, the “Pre-emergence action against SETVI” value (SETVI [3]) was 100%, the “Pre-emergence action against AMARE in %” value (AMARE [4]) was 100% and the “Pre-emergence action against STEME” value (STEME [5]) was 100%. For the same molecule, the “Pre-emergence action against SETVI in %” value (SETVI [6]) was 100%, the “Pre-emergence action against DIGSA” value (DIGSA [7]) was 100% and the “Pre-emergence action against AVEFA in %” value (AVEFA) was 90%. For the same molecule, the “Pre-emergence action at 320 g/ha against ALOMY in %” value (ALOMY [8]) was 100%, the “Post-emergence action against POAAN” value (POAAN [9]) was 100% and the “Post-emergence action against ECHCG” value (ECHCG [10]) was 100%. For the same molecule, the “Pre-emergence action against MATIN” value (MATIN [11]) was 100%, the “Post-emergence action against VERPE” value (VERPE [12]) was 90% and the “Pre-emergence action against DIGSA in %” value (DIGSA [13]) was 100%. The “Post-emergence action against AMARE” value (AMARE [14]) was 90%, the “Post-emergence action against ABUTH” value (ABUTH [15]) was 90% and the “Pre-emergence action at 320 g/ha against ABUTH in %” value (ABUTH [16]) was 80%. The “Pre-emergence action against KCHSC” value (KCHSC) was 90%, the “Post-emergence action against DIGSA” value (DIGSA [17]) was 100% and the “Post-emergence action against MATIN” value (MATIN [18]) was 100%. For the same molecule, the “Pre-emergence action against ABUTH” value (ABUTH [19]) was 90%, the “Pre-emergence action against VIOTR in %” value (VIOTR) was 100% and the “Pre-emergence action against ECHGC in %” value (ECHGC) was 100%. The “Pre-emergence action against VERPE in %” value (VERPE [20]) was 100%, the “Pre-emergence action against ALOMY” value (ALOMY [21]) was 100% and the “Post-emergence action against ALOMY” value (ALOMY [22]) was 100%. For the same molecule, the “Pre-emergence action against LOLRI in %” value (LOLRI [23]) was 100%, the “Post-emergence action against SETVI” value (SETVI [24]) was 90% and the “Pre-emergence action against POLCO in %” value (POLCO) was 90%. The “Post-emergence action against STEME” value (STEME [25]) was 90%, the “Post-emergence action against LOLRI” value (LOLRI [26]) was 100% and the “Pre-emergence action against VERPE” value (VERPE [27]) was 100%. The “Pre-emergence action against AMARE” value (AMARE [28]) was 100%, the “Pre-emergence action against ECHCG” value (ECHCG [29]) was 100% and the “Pre-emergence action against POAAN” value (POAAN [30]) was 100%.
